US9616129B2, “Compositions and methods for potentiating immune response, enhancing immunotherapy, and increasing vaccine potency” (Nitor Therapeutics, priority 2013, dated 2017)

Legend:
Assay type in all cases: cell-based
human TLR8 = target: T1, human TLR8 (Homo sapiens, UniProt Q9NR97); assay: TLR ligand screening, NF-κB SEAP reporter in HEK293 cells expressing TLR8; settings: one concentration: NTR001 10 uM, Inosine 100 uM; FIG. 2
T1 construct: expressed in transfected cells; host or cells: HEK293
T1 sequence (Q9NR97 27-1041): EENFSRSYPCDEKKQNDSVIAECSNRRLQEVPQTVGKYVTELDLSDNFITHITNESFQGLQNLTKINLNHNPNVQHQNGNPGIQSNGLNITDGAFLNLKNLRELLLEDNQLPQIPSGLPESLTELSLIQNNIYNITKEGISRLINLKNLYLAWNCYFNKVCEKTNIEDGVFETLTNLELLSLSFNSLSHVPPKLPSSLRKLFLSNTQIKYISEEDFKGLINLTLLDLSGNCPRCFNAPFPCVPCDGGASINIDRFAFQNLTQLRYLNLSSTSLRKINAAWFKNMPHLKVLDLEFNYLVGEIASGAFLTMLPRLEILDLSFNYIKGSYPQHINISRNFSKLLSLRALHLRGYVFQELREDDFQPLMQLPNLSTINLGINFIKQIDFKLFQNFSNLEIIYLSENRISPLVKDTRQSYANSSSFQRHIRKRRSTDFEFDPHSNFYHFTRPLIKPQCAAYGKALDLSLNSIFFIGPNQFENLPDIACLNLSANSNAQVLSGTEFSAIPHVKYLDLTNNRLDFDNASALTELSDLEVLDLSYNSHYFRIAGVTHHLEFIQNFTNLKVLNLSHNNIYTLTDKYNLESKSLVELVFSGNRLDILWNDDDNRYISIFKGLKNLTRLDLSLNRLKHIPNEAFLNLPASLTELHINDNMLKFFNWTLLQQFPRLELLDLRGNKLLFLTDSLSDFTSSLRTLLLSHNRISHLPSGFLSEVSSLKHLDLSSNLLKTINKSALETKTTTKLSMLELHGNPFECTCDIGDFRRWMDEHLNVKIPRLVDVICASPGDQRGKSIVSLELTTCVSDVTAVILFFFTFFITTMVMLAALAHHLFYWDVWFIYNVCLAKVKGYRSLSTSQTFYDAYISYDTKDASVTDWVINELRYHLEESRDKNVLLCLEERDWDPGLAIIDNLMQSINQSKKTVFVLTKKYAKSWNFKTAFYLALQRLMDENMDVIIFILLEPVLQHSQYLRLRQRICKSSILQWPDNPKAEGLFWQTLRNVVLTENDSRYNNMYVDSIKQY
Method: (§1) TLR stimulation is tested by assessing NF-κB activation in HEK293 cells expressing a given TLR. The Secreted Embryonic Alkaline Phosphatase (SEAP) reporter is under the control of a promoter inducible by the transcription factor NF-κB. This reporter gene allows the monitoring of signaling through the TLR, based on the activation of NF-κB. The compounds are evaluated at one concentration and compared to control ligands. This step is performed in triplicate.

human TLR2 = target: T2, human TLR2 (Homo sapiens, UniProt O60603); assay: TLR ligand screening, NF-κB SEAP reporter in HEK293 cells expressing TLR2; settings: one concentration: Guanosine 100 uM, NTR001 10 uM, Inosine 100 uM; FIG. 2
T2 construct: expressed in transfected cells; host or cells: HEK293
Method: as §1

human TLR7 = target: T3, human TLR7 (Homo sapiens, UniProt Q9NYK1); assay: TLR ligand screening, NF-κB SEAP reporter in HEK293 cells expressing TLR7; settings: one concentration: NTR001 10 uM, Inosine 100 uM; FIG. 2
T3 construct: expressed in transfected cells; host or cells: HEK293
T3 sequence (Q9NYK1 27-1049): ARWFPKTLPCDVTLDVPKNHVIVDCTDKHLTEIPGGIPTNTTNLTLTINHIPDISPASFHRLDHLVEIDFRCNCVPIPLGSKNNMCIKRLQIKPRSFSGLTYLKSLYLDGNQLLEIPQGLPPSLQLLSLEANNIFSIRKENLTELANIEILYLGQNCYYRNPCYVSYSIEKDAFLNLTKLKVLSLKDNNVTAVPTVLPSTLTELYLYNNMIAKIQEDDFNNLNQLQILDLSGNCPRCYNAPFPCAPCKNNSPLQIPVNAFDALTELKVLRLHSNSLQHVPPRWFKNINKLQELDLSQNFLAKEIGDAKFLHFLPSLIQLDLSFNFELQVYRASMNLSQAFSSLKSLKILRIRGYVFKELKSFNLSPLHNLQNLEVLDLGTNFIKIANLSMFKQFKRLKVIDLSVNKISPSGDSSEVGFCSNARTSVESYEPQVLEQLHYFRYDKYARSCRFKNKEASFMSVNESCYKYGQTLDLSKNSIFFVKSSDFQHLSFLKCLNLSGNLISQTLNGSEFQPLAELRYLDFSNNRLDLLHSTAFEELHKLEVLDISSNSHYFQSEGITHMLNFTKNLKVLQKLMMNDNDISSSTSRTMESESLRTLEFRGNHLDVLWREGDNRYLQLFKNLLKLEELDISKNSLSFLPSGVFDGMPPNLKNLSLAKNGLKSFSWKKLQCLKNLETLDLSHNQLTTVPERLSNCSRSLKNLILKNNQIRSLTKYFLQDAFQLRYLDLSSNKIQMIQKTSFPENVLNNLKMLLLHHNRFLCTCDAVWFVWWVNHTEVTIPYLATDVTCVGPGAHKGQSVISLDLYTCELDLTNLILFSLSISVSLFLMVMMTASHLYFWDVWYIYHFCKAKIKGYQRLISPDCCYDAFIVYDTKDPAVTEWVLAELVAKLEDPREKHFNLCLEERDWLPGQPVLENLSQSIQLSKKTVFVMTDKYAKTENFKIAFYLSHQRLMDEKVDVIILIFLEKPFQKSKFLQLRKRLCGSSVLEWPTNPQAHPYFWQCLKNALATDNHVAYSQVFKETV
Method: as §1

T2 sequence (O60603 21-784): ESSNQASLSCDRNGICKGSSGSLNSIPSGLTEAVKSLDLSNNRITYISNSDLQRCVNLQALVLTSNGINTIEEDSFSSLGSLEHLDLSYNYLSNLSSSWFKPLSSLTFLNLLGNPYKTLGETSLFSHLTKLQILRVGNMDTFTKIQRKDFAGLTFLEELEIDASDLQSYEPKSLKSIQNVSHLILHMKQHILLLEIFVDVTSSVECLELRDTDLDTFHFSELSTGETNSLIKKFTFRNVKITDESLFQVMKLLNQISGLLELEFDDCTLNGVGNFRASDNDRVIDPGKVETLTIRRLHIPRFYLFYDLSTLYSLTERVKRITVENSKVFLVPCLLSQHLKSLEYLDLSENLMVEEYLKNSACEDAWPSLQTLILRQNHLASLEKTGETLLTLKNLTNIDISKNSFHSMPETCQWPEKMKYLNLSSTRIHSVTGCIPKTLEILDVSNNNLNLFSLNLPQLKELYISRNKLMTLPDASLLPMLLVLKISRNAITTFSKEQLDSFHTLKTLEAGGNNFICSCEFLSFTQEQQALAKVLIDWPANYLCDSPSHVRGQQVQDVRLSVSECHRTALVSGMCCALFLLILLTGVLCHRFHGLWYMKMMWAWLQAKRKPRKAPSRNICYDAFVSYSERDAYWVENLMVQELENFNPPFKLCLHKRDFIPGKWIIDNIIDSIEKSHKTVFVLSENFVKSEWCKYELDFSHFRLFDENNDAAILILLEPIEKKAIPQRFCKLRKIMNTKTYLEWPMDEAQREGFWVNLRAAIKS

| SMILES | stimulatory effect on human TLR8 (NF-κB activation) (human TLR8) | stimulatory effect on human TLR2 (NF-κB activation) (human TLR2) | stimulatory effect on human TLR7 (NF-κB activation) (human TLR7) |
| --- | --- | --- | --- |
| OC[C@H]1O[C@@H](n2cnc3c(O)ncnc32)[C@H](O)[C@@H]1O [Inosine] | do not exhibit a stimulatory effect | do not exhibit a stimulatory effect | do not exhibit a stimulatory effect |
| O=c1[nH]cnc2c([C@@H]3N[C@H](CO)[C@@H](O)[C@H]3O)c[nH]c12 [NTR001, 7-[(2S,3S,4R,5R)-3,4-dihydroxy-5-(hydroxymethyl)-2-pyrrolidinyl]-1,5-dihydro-4H-pyrrolo[3,2-d]pyrimidin-4-one] | do not exhibit a stimulatory effect | do not exhibit a stimulatory effect | do not exhibit a stimulatory effect |
